In ChEMBL document CHEMBL4118220, “Design, synthesis and biological evaluation of phosphopeptides as Polo-like kinase 1 Polo-box domain inhibitors” (Bioorg Med Chem, 2018):
Square brackets hold non-standard residues; d marks the D form. Peptide text beside a SMILES is read from it. Phe(3,4-Cl2) = N[C@@H](Cc1ccc(Cl)c(Cl)c1)C(=O)O; Phe(4-Cl) = N[C@@H](Cc1ccc(Cl)cc1)C(=O)O; Phe(4-F) = N[C@@H](Cc1ccc(F)cc1)C(=O)O; pT = C[C@@H](OP(=O)(O)O)[C@H](N)C(=O)O

Columns and labels:
[1] = target: Serine/threonine-protein kinase PLK3 (Homo sapiens, UniProt Q9H4B4); experiment: Inhibition of FITC-GPLATSpTPKNG-OH binding to Plk3 PBD (unknown origin) after 30 mins by fluorescence polarization assay
[2] = target: Serine/threonine-protein kinase PLK2 (Homo sapiens, UniProt Q9NYY3); experiment: Inhibition of FITC-GPMQTSpTPKNG-OH binding to Plk2 PBD (unknown origin) after 30 mins by fluorescence polarization assay
Sequence of Serine/threonine-protein kinase PLK2 (Q9NYY3 whole entry): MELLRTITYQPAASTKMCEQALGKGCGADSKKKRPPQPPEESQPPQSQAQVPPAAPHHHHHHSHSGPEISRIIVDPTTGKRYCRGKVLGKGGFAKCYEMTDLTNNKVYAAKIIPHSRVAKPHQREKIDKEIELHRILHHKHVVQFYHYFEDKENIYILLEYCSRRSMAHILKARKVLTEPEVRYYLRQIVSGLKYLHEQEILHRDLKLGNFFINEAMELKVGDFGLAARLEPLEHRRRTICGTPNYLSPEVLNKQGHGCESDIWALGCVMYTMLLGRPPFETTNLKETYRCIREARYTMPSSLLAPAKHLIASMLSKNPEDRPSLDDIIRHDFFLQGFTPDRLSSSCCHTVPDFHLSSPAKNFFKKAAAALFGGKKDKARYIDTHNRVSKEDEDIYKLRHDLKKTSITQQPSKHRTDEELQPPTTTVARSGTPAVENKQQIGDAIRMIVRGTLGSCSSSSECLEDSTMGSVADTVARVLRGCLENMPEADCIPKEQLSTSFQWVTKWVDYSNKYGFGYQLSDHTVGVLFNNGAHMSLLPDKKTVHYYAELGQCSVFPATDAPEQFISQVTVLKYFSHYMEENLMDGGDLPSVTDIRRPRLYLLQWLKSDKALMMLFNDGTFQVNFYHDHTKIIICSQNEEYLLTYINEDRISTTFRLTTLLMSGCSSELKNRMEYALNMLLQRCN

Sequence of Serine/threonine-protein kinase PLK3 (Q9H4B4 whole entry): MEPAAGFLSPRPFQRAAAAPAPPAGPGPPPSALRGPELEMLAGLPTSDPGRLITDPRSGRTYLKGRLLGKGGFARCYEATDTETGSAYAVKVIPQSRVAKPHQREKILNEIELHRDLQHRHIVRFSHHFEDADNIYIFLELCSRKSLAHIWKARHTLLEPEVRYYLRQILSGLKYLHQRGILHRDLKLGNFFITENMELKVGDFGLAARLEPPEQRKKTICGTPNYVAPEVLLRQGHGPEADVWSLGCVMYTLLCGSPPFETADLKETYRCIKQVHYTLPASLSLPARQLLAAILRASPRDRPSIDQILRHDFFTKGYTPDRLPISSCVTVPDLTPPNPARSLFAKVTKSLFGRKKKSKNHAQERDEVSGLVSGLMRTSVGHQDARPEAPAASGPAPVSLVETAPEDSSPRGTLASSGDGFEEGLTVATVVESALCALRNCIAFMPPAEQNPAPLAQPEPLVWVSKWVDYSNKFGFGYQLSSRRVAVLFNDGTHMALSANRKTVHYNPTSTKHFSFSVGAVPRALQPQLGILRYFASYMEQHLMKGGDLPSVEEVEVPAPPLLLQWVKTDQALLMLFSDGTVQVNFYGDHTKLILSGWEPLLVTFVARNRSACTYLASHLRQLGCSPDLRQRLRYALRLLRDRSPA

`CC[C@H](C)[C@H](NC(=O)[C@H](C)NC(=O)[C@@H](NC(=O)[C@H](CO)NC(=O)[C@H](Cc1cnc[nH]1)NC(=O)[C@H](CC(C)C)NC(=O)[C@@H]1CCCN1C(=O)[C@@H]1CCCN1C(=O)[C@H](CC(=O)O)NC(=O)[C@H](Cc1ccc(Cl)c(Cl)c1)NC(=O)[C@H](CCC(N)=O)NC(C)=O)[C@@H](C)O)C(=O)N[C@@H](Cc1ccc(O)cc1)C(=O)N[C@@H](C)C(=O)N[C@@H](CC(N)=O)C(N)=O` (Ac-Q[Phe(3,4-Cl2)]DPPLHSTAIYAN-NH2) was tested, and the IC50 [1] was “Not Active” and the IC50 [2] was “Not Active”.

`CC[C@H](C)[C@H](NC(=O)[C@H](C)NC(=O)[C@@H](NC(=O)[C@H](CO)NC(=O)[C@H](Cc1cnc[nH]1)NC(=O)[C@H](CC(C)C)NC(=O)[C@@H]1CCCN1C(=O)[C@@H]1CCCN1C(=O)[C@H](CC(=O)O)NC(=O)[C@H](Cc1ccc(OC)cc1)NC(=O)[C@@H](NC(=O)[C@H](CCC(N)=O)NC(C)=O)[C@@H](C)O)[C@@H](C)OP(=O)(O)O)C(=O)N[C@@H](Cc1ccc(O)cc1)C(=O)N[C@@H](C)C(=O)N[C@@H](CC(N)=O)C(N)=O` (Ac-QTY(Me)DPPLHS[pT]AIYAN-NH2) was tested, and the IC50 [1] was “Not Active” and the IC50 [2] was “Not Active”.

For `CC[C@H](C)[C@H](NC(=O)[C@H](C)NC(=O)[C@@H](NC(=O)[C@H](CO)NC(=O)[C@H](Cc1cnc[nH]1)NC(=O)[C@H](CC(C)C)NC(=O)[C@@H]1CCCN1C(=O)[C@@H]1CCCN1C(=O)[C@H](CC(=O)O)NC(=O)[C@H](Cc1ccc(F)cc1)NC(=O)[C@@H](NC(=O)[C@H](CCC(N)=O)NC(C)=O)[C@@H](C)O)[C@@H](C)OP(=O)(O)O)C(=O)N[C@@H](Cc1ccc(O)cc1)C(=O)N[C@@H](C)C(=O)N[C@@H](CC(N)=O)C(N)=O` (Ac-QT[Phe(4-F)]DPPLHS[pT]AIYAN-NH2), the IC50 [1] was “Not Active” and the IC50 [2] was “Not Active”.

With `CC[C@H](C)[C@H](NC(=O)[C@H](C)NC(=O)[C@@H](NC(=O)[C@H](CO)NC(=O)[C@H](Cc1cnc[nH]1)NC(=O)[C@H](CC(C)C)NC(=O)[C@@H]1CCCN1C(=O)[C@@H]1CCCN1C(=O)[C@H](CC(=O)O)NC(=O)[C@H](Cc1ccc(Cl)cc1)NC(=O)[C@@H](NC(=O)[C@H](CCC(N)=O)NC(C)=O)[C@@H](C)O)[C@@H](C)OP(=O)(O)O)C(=O)N[C@@H](Cc1ccc(O)cc1)C(=O)N[C@@H](C)C(=O)N[C@@H](CC(N)=O)C(N)=O` (Ac-QT[Phe(4-Cl)]DPPLHS[pT]AIYAN-NH2) the IC50 [1] was “Not Active” and the IC50 [2] was “Not Active”.

For `CC[C@H](C)[C@H](NC(=O)[C@H](C)NC(=O)[C@@H](NC(=O)[C@H](CO)NC(=O)[C@H](Cc1cnc[nH]1)NC(=O)[C@H](CC(C)C)NC(=O)[C@@H]1CCCN1C(=O)[C@@H]1CCCN1C(=O)[C@H](CC(=O)O)NC(=O)[C@H](Cc1ccc(Cl)c(Cl)c1)NC(=O)[C@@H](NC(C)=O)[C@@H](C)O)[C@@H](C)OP(=O)(O)O)C(=O)N[C@@H](Cc1ccc(O)cc1)C(=O)N[C@@H](C)C(=O)N[C@@H](CC(N)=O)C(N)=O` (Ac-T[Phe(3,4-Cl2)]DPPLHS[pT]AIYAN-NH2), the IC50 [1] was “Not Active” and the IC50 [2] was “Not Active”.
